{
  "source": "patent US5219864A",
  "about": "“Thienopyridine derivatives” (Kyowa Hakko Kogyo Co., Ltd., priority 1991, dated 1993)",
  "key": {"[1]": {"system": "calvaria", "test": "Activity of inhibiting bone absorption (PTH-intensified calcium release from cultured calvaria)", "type": "cell-based, dd mouse", "settings": "Mus musculus, human PTH 1-34 1×10^-8 M, 96 hours, read-out: Inhibition Rate", "experimental": "A calvaria of a 5 to 6 day-old dd mouse was aseptically cut off, washed with Dulbecco's modified phosphate buffered saline not containing calcium and magnesium (manufactured by Gibco Oriental Co.) and separated along the sutura of its center. One half of the calvaria so separated was cultured in 1.5 ml of Dulbecco's modified Eagle medium (manufactured by Gibco Oriental Co.) containing 15% of thermally inactivated (at 56° C. for 20 minutes) horse serum and 2.5% of fetal calf serum. The test compound was dissolved in dimethyl sulfoxide, and 10 μl (final concentration: 1×10^-4 M or 1×10-^5 M) of the solution so prepared was added to the culture. Parathyroid hormone (human PTH 1-34, manufactured by Sigma Co.) was dissolved in 0.15 M sodium chloride solution (pH 3), and 3 μl (final concentration: 1×10^-8 M) of the solution so prepared was added to the culture. The cultivation was carried out for 96 hours at 37° C. in an atmosphere consisting of 95% of air and 5% of carbon dioxide. The culture medium was once replaced with a fresh one after 48 hours from the beginning of the cultivation. The concentration of dissolved calcium (i.e., absorption of bone) from the PTH-intensified bone was determined by measuring the quantity of calcium accumulated in the culture collected in 96 hours of cultivation, whereby the concentration of total calcium contained in the culture was measured with Calcium C-Test Wako (manufactured by Wako Pure Chemicals Co., Ltd.), and the inhibition rate was calculated therefrom in accordance with the equation set forth below. [formula] Cd : Total calcium concentration in the culture treated with both test compound and PTH\nCp : Total calcium concentration in the culture treated with PTH alone\nCo Total calcium concentration in the culture treated with neither test compound nor PTH"}, "[2]": {"system": "dd-strain male mice", "test": "Acute toxicity test", "type": "in vivo", "settings": "orally administered, mortality for 7 days", "experimental": "A test compound was orally administered to three dd-strain male mice weighting 20±1 g. The minimum lethal dose (MLD) was determined by observing the mortality for 7 days after the administration."}, "[3]": {"system": "cells obtained from the spleen of Balb/c mice sensitized with sheep red blood cells", "test": "Plaque Forming Cell Assay (inhibition of antibody production)", "type": "cell-based, Balb/c strain male mice", "settings": "for inhibition at 100 µM / inhibition at 10 µM: Mus musculus, Erythrocyte, inhibition of antibody production, read-out: Inhibition Rate", "experimental": "The method developed by Jerne [Science, 140, 405 (1963)] and Yamamoto, et al [Drugs. Exptl. Clin. res., 8, 5 (1982)] were modified for plaque forming cell assay.\nThat is, Balb/c strain male mice (age of 7 weeks, Charles River Japan Inc.) were sensitized with 1×10^8 sheep red blood cells (Bio Test Research Institute) and the spleen was extirpated on the sixth or seventh day. The cells obtained from the spleen were treated with ACT solution (Tris-ammonium chloride isotonic buffer) to remove red blood cells. The cells were washed three times with RPMI-1640 medium (Nissui Pharmaceutical Co. . The cells (1×10^7) were incubated in RPMI-1640 medium containing 10% calf fetal serum (Gibco Co.), 50 μg/ml streptomycin, 50 IU/ml of penicillin, 2-mercaptoethanol (5×10^-5 M), sheep red blood cells (5×10^6 cells) and a test compound dissolved in dimethyl sulfoxide supplied on a microculture plate (NUNC Co., 24 wells) in a carbon dioxide gas incubator (TABAI ESPEC CORP) at 37° C. for 5 days.\nAfter completion of the incubation, the cells were transferred to a plastic test tube and centrifuged at 2000 rpm. After the supernatant was removed, the cells were resuspended in 1 ml of RPMI-1640 medium. The cell suspension was sealed in a Cunnigham chamber (Takahashi Giken Co.) together with sheep red blood cells and guinea pig complement (Cedarlane Research Institute) according to the method of Cunnigham [Immunology, 14, 599 (1968)] and incubated at 37° C. for 1 to 2 hours. Direct plaque forming cell (PFC) count was counted.\nA rate of inhibiting antibody production by the test compound was determined by the following equation. [formula] A : PFC count in the absence of test compound (dimethylsulfoxide alone) B : PFC count in the presence of test compound"}},
  "data": [
    {"molecule": "O=C(Nc1ccncc1)c1c(O)c2sccc2[nH]c1=O", "note": "[Compound 2, 4,5-Dihydro-7-hydroxy-5-oxo-N-(4-pyridyl)thieno[3,2-b]-pyridine-6-carboxamide]", "values": [
      {"measurement": "inhibition at 100 µM", "setting": "[1]", "result": 51, "unit": "%"}
    ]},
    {"molecule": "O=C(Nc1ccncc1)c1c(O)c2ccsc2[nH]c1=O", "note": "[Compound 7, 6,7-Dihydro-4-hydroxy-6-oxo-N-(4-pyridyl)thieno[2,3-b]-pyridine-5-carboxamide]", "values": [
      {"measurement": "inhibition at 10 µM", "setting": "[1]", "result": 32, "unit": "%"},
      {"measurement": "minimum lethal dose (MLD)", "setting": "[2]", "result": "> 300", "unit": "mg/kg"}
    ]},
    {"molecule": "CCCCn1c(=O)c(C(=O)Nc2ccncc2)c(O)c2ccsc21", "note": "[Compound 5, 7-(n-Butyl)-6,7-dihydro-4-hydroxy-6-oxo-N-(4-pyridyl)thieno-[2,3-b]pyridine-5-carboxamide]", "values": [
      {"measurement": "Direct PFC Count (mean ± S.E.M.)", "setting": "[3]; 10^-4 M", "result": "109 ± 77"},
      {"measurement": "Direct PFC Count (mean ± S.E.M.)", "setting": "[3]; 10^-5 M", "result": "227 ± 131"},
      {"measurement": "inhibition at 100 µM", "setting": "[3]; 10^-4 M", "result": 97.8, "unit": "%"},
      {"measurement": "inhibition at 10 µM", "setting": "[3]; 10^-5 M", "result": 95.5, "unit": "%"},
      {"measurement": "inhibition at 10 µM", "setting": "[1]", "result": 53, "unit": "%"}
    ]},
    {"molecule": "CCCCn1c(=O)c(C(=O)Nc2ccncc2)c(O)c2sccc21", "note": "[Compound 3, 4-(n-Butyl)-4,5-dihydro-7-hydroxy-5-oxo-N-(4-pyridyl)thieno-[3,2-b]pyridine-6-carboxamide]", "values": [
      {"measurement": "Direct PFC Count (mean ± S.E.M.)", "setting": "[3]; 10^-4 M", "result": "101 ± 76"},
      {"measurement": "Direct PFC Count (mean ± S.E.M.)", "setting": "[3]; 10^-5 M", "result": "59 ± 38"},
      {"measurement": "inhibition at 100 µM", "setting": "[3]; 10^-4 M", "result": 98, "unit": "%"},
      {"measurement": "inhibition at 10 µM", "setting": "[3]; 10^-5 M", "result": 98.8, "unit": "%"},
      {"measurement": "inhibition at 10 µM", "setting": "[1]", "result": 141, "unit": "%"}
    ]},
    {"molecule": "O=C(Nc1cccnc1)c1c(O)c2sccc2[nH]c1=O", "note": "[Compound 1, 4,5-Dihydro-7-hydroxy-5-oxo-N-(3-pyridyl)thieno[3,2-b]-pyridine-6-carboxamide]", "values": [
      {"measurement": "inhibition at 100 µM", "setting": "[1]", "result": -1, "unit": "%"}
    ]},
    {"molecule": "CCCCn1c(=O)c(C(=O)Nc2cccnc2)c(O)c2sccc21", "note": "[Compound 4, 4-(n-Butyl)-4,5-dihydro-7-hydroxy-5-oxo-N-(3-pyridyl)thieno-[3,2-b]pyridine-6-carboxamide]", "values": [
      {"measurement": "Direct PFC Count (mean ± S.E.M.)", "setting": "[3]; 10^-4 M", "result": "336 ± 124"},
      {"measurement": "Direct PFC Count (mean ± S.E.M.)", "setting": "[3]; 10^-5 M", "result": "395 ± 52"},
      {"measurement": "inhibition at 100 µM", "setting": "[3]; 10^-4 M", "result": 93.3, "unit": "%"},
      {"measurement": "inhibition at 10 µM", "setting": "[3]; 10^-5 M", "result": 92.1, "unit": "%"},
      {"measurement": "inhibition at 10 µM", "setting": "[1]", "result": 58, "unit": "%"},
      {"measurement": "minimum lethal dose (MLD)", "setting": "[2]", "result": "> 300", "unit": "mg/kg"}
    ]},
    {"molecule": "CCCCn1c(=O)c(C(=O)Nc2cccnc2)c(O)c2ccsc21", "note": "[Compound 6, 7-(n-Butyl)-6,7-dihydro-4-hydroxy-6-oxo-N-(3-pyridyl)thieno-[2,3-b]pyridine-5-carboxamide]", "values": [
      {"measurement": "Direct PFC Count (mean ± S.E.M.)", "setting": "[3]; 10^-4 M", "result": "42 ± 29"},
      {"measurement": "Direct PFC Count (mean ± S.E.M.)", "setting": "[3]; 10^-5 M", "result": "59 ± 29"},
      {"measurement": "inhibition at 100 µM", "setting": "[3]; 10^-4 M", "result": 99.2, "unit": "%"},
      {"measurement": "inhibition at 10 µM", "setting": "[3]; 10^-5 M", "result": 98.8, "unit": "%"},
      {"measurement": "inhibition at 10 µM", "setting": "[1]", "result": 38, "unit": "%"}
    ]},
    {"molecule": "O=C(Nc1cccnc1)c1c(O)c2ccsc2[nH]c1=O", "note": "[Compound 8, 6,7-Dihydro-4-hydroxy-6-oxo-N-(3-pyridyl)thieno[2,3-b]-pyridine-5-carboxamide]", "values": [
      {"measurement": "inhibition at 10 µM", "setting": "[1]", "result": 18, "unit": "%"}
    ]}
  ]
}
